Experiments:
[1] = tested on: C57BL/6J-Tyr^c-h/c-h mice (OCA1b model); assay: Transmission electron microscopy of iris, RPE and choroid, Tyr^c-h/c-h mice; format: in vivo, mouse; details: treated vs controls, statistically significant in all three tissues, FIG. 4
Experimental: (§1) Transmission Electron Microscopy. Eyes from drug and vehicle-treated mice were dissected and divided into anterior and posterior segments (n=2 eyes from 2 separate mice in each group). The iris and posterior part (choroid, RPE and retina) of the eyes were removed and fixed in 2% glutaraldehyde and 2% paraformaldehyde in 0.1 M sodium phosphate buffer (PB), pH 7.4 for about 12 hours at room temperature (RT). After a wash with rinsing buffer (RB, 4% sucrose and 0.15 mM CaCl2 in PB), pH 7.4 at 4° C., tissues were postfixed in 1% OsO4 in 0.1 M PB, pH 7.4 for 1 hour. After rinsing and dehydration, tissues were embedded in Durcupan resin for 72 hours at 60° C. One micron semi-sections were used for tissue orientation. About 70-90 nm ultrasections were also collected in 200 mesh grids and counterstained with 5% uranyl acetate and 0.3% lead citrate. […]
(§2) In order to quantitate the effect of NTBC on pigmentation in ocular tissues and to assess for sub-clinical changes in ocular pigmentation, transmission electron microscopy (TEM) of iris, retinal pigment epithelium (RPE), and choroid of treated and control mice (n=4 eyes from 2 mice for each group) was performed. […]

Tyr^c-h/c-h pups = assay: Prenatal NTBC treatment of pregnant Tyr^c-h/c-h females, pup examination
Experimental: Drug Dosing and Monitoring. Ten C57BL/6J Tyr^c-2J/c-2J and ten C57BL/6Tyr^c-h/c-h mice, 3-4 months of age were designated for treatment with NTBC (Swedish Orphan Drug, Stockholm, Sweden). An equal number of age-matched controls of each genotype designated to receive vehicle treatment. NTBC was dissolved in 2 M NaOH and brought to neutral pH before administration to mice. Coat color, iris transillumination and fundus appearance were photodocumented prior to treatment. Because pigment deposition in hair is stimulated with new hair growth, a section of each mouse's coat was shaved prior to the beginning of the experiment. Drug or vehicle was given every other day via oral gavages, at a dosage of about 4 mg/kg, in a volume of about 0.2-0.3 ml. […] Coat color, iris transillumination and fundus appearance were photodocumented at the end of 1 month of treatment or vehicle dosing. For prenatal treatment experiments, pregnancy was determined by a maternal weight gain of >2 g over 7-9 days, after observing a vaginal mucus plug. Treatment with 4 mg/kg NTBC was initiated daily at day 9 or 10 of pregnancy by oral gavage, and given until birth of the litter. At that point, every-other-day oral treatment of the mother was initiated until time of weaning.

[2] = tested on: male Alpk:ApfCD-1 albino mice; details: cited from earlier work
[3] = tested on: C57BL/6J-Tyr^c-2J/c-2J mice (OCA1a model); assay: Transmission electron microscopy of iris, RPE and choroid, Tyr^c-2J/c-2J mice; format: in vivo, mouse; details: treated vs untreated
Experimental: as §1, §2

[4] = target: T1, H420R mutant tyrosinase in Melan-c cells (Mus musculus, UniProt P11344, H420R); assay: Tyrosinase enzyme activity in transfected Melan-c cells, H420R; format: cell-based; details: 1 mM tyrosine; Melan-c cells expressing H420R; p=0.03
T1 construct: expressed in transfected cells; host or cells: Melan-c cells (albino mouse melanocytes), Fugene HD transfection
T1 sequence (P11344 19-533 H420R): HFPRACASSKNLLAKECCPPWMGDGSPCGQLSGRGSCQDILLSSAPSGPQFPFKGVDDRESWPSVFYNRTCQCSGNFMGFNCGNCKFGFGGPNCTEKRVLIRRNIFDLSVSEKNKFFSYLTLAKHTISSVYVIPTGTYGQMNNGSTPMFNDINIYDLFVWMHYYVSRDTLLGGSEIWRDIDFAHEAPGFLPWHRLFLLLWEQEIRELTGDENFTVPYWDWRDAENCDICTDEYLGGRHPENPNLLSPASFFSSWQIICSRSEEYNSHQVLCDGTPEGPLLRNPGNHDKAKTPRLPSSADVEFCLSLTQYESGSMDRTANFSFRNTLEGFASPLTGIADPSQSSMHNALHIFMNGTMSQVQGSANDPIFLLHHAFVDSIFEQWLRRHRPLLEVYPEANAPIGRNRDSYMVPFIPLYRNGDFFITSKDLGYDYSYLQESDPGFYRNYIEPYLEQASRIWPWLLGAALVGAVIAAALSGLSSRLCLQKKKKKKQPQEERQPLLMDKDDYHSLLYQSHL
Experimental: Melan-c cell cultures. Melan-c cells (melanocytes derived from mice homozygous for the albino mutation (D. C. Bennett et al., Development, 105:379 (1989)) were cultured in RPMI 1640, pH 6.9 supplemented with 5% fetal bovine serum (FBS), streptomycin-penicillin (100 μg/ml each), 200 nM tetradeconyl phorbol acetate (TPA), and 100 μM β-mercaptoethanol, at 37° C. in 10% CO2. Cells were transfected using Fugene HD reagent according to the manufacturer's instructions (Roche Diagnostics Inc., Indianapolis, Ind.) in presence or absence of 1 mM tyrosine. After 24 hours, cells were washed twice with saline phosphate buffer, harvested in 10 mM sodium phosphate, pH 6.8, containing 1% Igepal CA-630 and protease inhibitor (Roche), and microcentrifuged for 30 minutes at 13,200×g, at a temperature of about 4° C. to obtain a protein lysate.
Diphenol oxidase activity of tyrosinase was determined spectrophotometrically according to Slominski et al., J. Invest. Dermatol., 96:172 (1991), with minor modifications. Briefly, the reaction mixtures contained 7 mM L-dopa in 0.1 M sodium phosphate buffer (pH 6.8) and protein lysate (20 mg/ml) was incubated at 37° C. and monitored by measuring the absorbance at 475 nm. All experiments were conducted in triplicate. […]

Row | SMILES | Number of pigmented melanosomes in iris, choroid and RPE (TEM) [1] | Fundus appearance of pups, vehicle- vs drug-treated dams (Tyr^c-h/c-h pups; Tyr^c-h/c-h, 4 mg/kg) | Congenital malformations or systemic illnesses in pups of treated mothers (Tyr^c-h/c-h pups; Tyr^c-h/c-h, 4 mg/kg prenatal treatment) | Iris pigmentation of pups on clinical examination (Tyr^c-h/c-h pups; pups of NTBC-treated Tyr^c-h/c-h mothers, 4 mg/kg, near time of weaning) | Coat color of pups (Tyr^c-h/c-h pups; pups of NTBC-treated Tyr^c-h/c-h mothers, 4 mg/kg, vs vehicle-treated mothers) | Tolerated NTBC dose ([2]; male Alpk:ApfCD-1 albino mice, age 3-6 weeks) | NTBC dose at which maximum plasma tyrosine concentrations were achieved ([2]; mice, toxicologic studies (Lock et al.)) | Number of pigmented melanosomes (stages III and IV) in iris, choroid and RPE (TEM) [3] | Tyrosinase enzyme activity over baseline [4]
1 | O=C1CCCC(=O)C1C(=O)c1ccc(C(F)(F)F)cc1[N+](=O)[O-] [NTBC, 2-(-2-nitro-4 trifluoromethylbenzoyl)-1,3 cyclohexanedione] | clear increase | no significant difference | no obvious congenital malformations or systemic illnesses | significant pigmentation | considerably darker | up to 160 mg/kg/day | ≤ 10 mg/kg | little to no increase | –
2 | N[C@@H](Cc1ccc(O)cc1)C(=O)O [tyrosine] | – | – | – | – | – | – | – | – | increased enzyme activity over baseline
